Measurements published in US10065956B2, “Ethynyl derivatives” (Hoffmann-La Roche Inc., priority 2015, dated 2018).

Target: T1, human mGlu4 receptor (Homo sapiens, UniProt Q14833)
T1 construct: expressed in transfected cells; host or cells: monoclonal HEK-293 cell line, stably transfected
Experiment: Ca2+ mobilization in vitro assay on recombinant human mGlu4 expressed in HEK293 cells (PAM, L-AP4 at EC20)
Assay type: cell-based
Conditions: for Emax: HEK293, maximal response in % of the maximal stimulatory effect obtained with saturating concentrations of L-AP4, read-out: Eff. (%); for EC50: HEK293 cells expressing human mGlu4, L-AP4 added at EC20
Description: FIG. 1: Illustration of the experimental outline for mGlu4 PAM Ca2+ mobilization screening assay and the determination of EC50 and % Emax values.
Determination of EC50 Values Using a Ca2+ Mobilization In Vitro Assay on Recombinant Human mGlu4 Expressed in HEK293 Cells:
A monoclonal HEK-293 cell line stably transfected with a cDNA encoding for the human mGlu4 receptor was generated; for the work with mGlu4 Positive Allosteric Modulators (PAMs), a cell line with low receptor expression levels and low constitutive receptor activity was selected to allow the differentiation of agonistic versus PAM activity. Cells were cultured according to standard protocols (Freshney, 2000) in Dulbecco's Modified Eagle Medium with high glucose supplemented with 1 mM glutamine, 10% (vol/vol) heat-inactivated bovine calf serum, Penicillin/Streptomycin, 50 μg/ml hygromycin and 15 μg/ml blasticidin (all cell culture reagents and antibiotics from Invitrogen, Basel, Switzerland).
About 24 hrs before an experiment, 5×10^4 cells/well were seeded in poly-D-lysine coated, black/clear-bottomed 96-well plates. The cells were loaded with 2.5 μM Fluo-4AM in loading buffer (1×HBSS, 20 mM HEPES) for 1 hr at 37° C. and washed five times with loading buffer. The cells were transferred into a Functional Drug Screening System 7000 (Hamamatsu, Paris, France), and 11 half logarithmic serial dilutions of test compound at 37° C. were added and the cells were incubated for 10-30 min. with on-line recording of fluorescence. Following this pre-incubation step, the agonist (2S)-2-amino-4-phosphonobutanoic acid (L-AP4) was added to the cells at a concentration corresponding to EC20 with on-line recording of fluorescence; in order to account for day-to-day variations in the responsiveness of cells, the EC20 of L-AP4 was determined immediately ahead of each experiment by recording of a full dose-response curve of L-AP4. Responses were measured as peak increase in fluorescence minus basal (i.e. fluorescence without addition of L-AP4), normalized to the maximal stimulatory effect obtained with saturating concentrations of L-AP4. Graphs were plotted with the % maximal stimulatory using XLfit, a curve fitting program that iteratively plots the data using Levenburg Marquardt algorithm. The single site competition analysis equation used was y=A+((B−A)/(1+((x/C)D))), where y is the % maximal stimulatory effect, A is the minimum y, B is the maximum y, C is the EC50, x is the log 10 of the concentration of the competing compound and D is the slope of the curve (the Hill Coefficient). From these curves the EC50 (drug concentration at which 50% of the maximal receptor activation was achieved), the Hill coefficient as well as the maximal response in % of the maximal stimulatory effect obtained with saturating concentrations of L-AP4 were calculated (see FIG. 1). […] A depression of the signal observed after addition of the EC20 concentration of L-AP4 was indicative of an inhibitory activity of the test compound.

T1 sequence (Q14833 33-912): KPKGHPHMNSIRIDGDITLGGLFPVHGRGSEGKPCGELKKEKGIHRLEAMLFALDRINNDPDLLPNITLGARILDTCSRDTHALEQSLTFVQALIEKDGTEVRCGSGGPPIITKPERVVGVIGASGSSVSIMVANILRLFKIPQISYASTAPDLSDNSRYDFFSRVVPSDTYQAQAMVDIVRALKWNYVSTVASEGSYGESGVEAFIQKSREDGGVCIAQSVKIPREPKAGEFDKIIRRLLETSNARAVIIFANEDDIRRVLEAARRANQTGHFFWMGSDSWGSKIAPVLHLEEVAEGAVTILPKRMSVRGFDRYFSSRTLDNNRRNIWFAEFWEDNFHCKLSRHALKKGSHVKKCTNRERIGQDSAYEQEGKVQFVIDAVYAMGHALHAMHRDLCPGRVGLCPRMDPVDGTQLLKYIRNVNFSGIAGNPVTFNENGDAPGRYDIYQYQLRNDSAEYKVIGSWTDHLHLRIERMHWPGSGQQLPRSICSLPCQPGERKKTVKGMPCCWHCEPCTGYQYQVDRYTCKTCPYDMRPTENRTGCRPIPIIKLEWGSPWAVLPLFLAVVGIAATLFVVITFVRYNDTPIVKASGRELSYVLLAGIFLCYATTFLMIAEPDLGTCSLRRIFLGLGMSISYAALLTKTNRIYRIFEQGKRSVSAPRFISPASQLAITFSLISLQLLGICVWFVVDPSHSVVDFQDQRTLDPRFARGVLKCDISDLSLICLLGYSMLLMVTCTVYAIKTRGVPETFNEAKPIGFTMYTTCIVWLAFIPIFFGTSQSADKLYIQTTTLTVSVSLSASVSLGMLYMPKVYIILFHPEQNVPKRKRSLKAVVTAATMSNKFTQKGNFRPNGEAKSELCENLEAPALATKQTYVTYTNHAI

Cc1nc(C2(C)CC(=O)N(c3c(F)cc(C#Cc4ccccc4)cc3F)C(=O)N2C)cs1 (racemic) [Example 3, (6RS)-3-[2,6-Difluoro-4-(2-phenylethynyl)phenyl]-1,6-dimethyl-6-(2-methylthiazol-4-yl)hexahydropyrimidine-2,4-dione]
Emax: 138%
EC50: 94 nM

CN1C(=O)N(c2c(F)cc(C#Cc3cnsc3)cc2F)C(=O)C[C@@]1(C)c1cnn(C)c1 [Example 25, (6S)-3-[2,6-Difluoro-4-(2-isothiazol-4-ylethynyl)phenyl]-1,6-dimethyl-6-(1-methylpyrazol-4-yl)hexahydropyrimidine-2,4-dione]
Emax: 149%
EC50: 45 nM

CN1C(=O)N(c2c(F)cc(C#Cc3cccnc3)cc2F)C(=O)C[C@@]1(C)c1cnn(C)c1 [Example 24, (6S)-3-[2,6-Difluoro-4-[2-(3-pyridyl)ethynyl]phenyl]-1,6-dimethyl-6-(1-methylpyrazol-4-yl)hexahydropyrimidine-2,4-dione]
Emax: 141%
EC50: 39 nM

COCCn1cc([C@]2(C)CC(=O)N(c3c(F)cc(C#Cc4ccccc4)cc3F)C(=O)N2C)cn1 [Example 20, (6S)-3-[2,6-Difluoro-4-(2-phenylethynyl)phenyl]-6-[1-(2-methoxyethyl)pyrazol-4-yl]-1,6-dimethyl-hexahydropyrimidine-2,4-dione]
Emax: 137%
EC50: 54 nM

CC[C@@]1(c2cnn(C)c2)CC(=O)N(c2c(F)cc(C#Cc3ccccc3)cc2F)C(=O)N1C [Example 18, (6S)-3-[2,6-Difluoro-4-(2-phenylethynyl)phenyl]-6-ethyl-1-methyl-6-(1-methylpyrazol-4-yl)hexahydropyrimidine-2,4-dione]
Emax: 135%
EC50: 47 nM

CN1C(=O)N(c2c(F)cc(C#Cc3ccccc3)cc2F)C(=O)C[C@@]1(C)c1cnsc1 [Example 15, (6S)-3-[2,6-Difluoro-4-(2-phenylethynyl)phenyl]-6-isothiazol-4-yl-1,6-dimethyl-hexahydropyrimidine-2,4-dione]
Emax: 167%
EC50: 38 nM

CN1C(=O)N(c2c(F)cc(C#Cc3ccccc3)cc2F)C(=O)C[C@@]1(C)c1ccn(C2CCOC2)n1 (mixture of isomers) [Example 64, (6S)-3-[2,6-Difluoro-4-(2-phenylethynyl)phenyl]-1,6-dimethyl-6-[1-[(3RS)-tetrahydrofuran-3-yl]pyrazol-3-yl]hexahydropyrimidine-2,4-dione]
Emax: 98%
EC50: 88 nM

CCn1cc([C@]2(C)CC(=O)N(c3c(F)cc(C#Cc4ccccc4)cc3F)C(=O)N2C)cn1 [Example 13, (6S)-3-[2,6-Difluoro-4-(2-phenylethynyl)phenyl]-6-(1-ethylpyrazol-4-yl)-1,6-dimethyl-hexahydropyrimidine-2,4-dione]
Emax: 115%
EC50: 64 nM

CC[C@@]1(c2cn[nH]c2)CC(=O)N(c2c(F)cc(C#Cc3ccccc3)cc2F)C(=O)N1C [Example 45, (6S)-3-[2,6-Difluoro-4-(2-phenylethynyl)phenyl]-6-ethyl-1-methyl-6-(1H-pyrazol-4-yl)hexahydropyrimidine-2,4-dione]
Emax: 126%
EC50: 39 nM

CN1C(=O)N(c2c(F)cc(C#Cc3cc(F)ccc3F)cc2F)C(=O)C[C@@]1(C)c1cnn(C)c1 [Example 48, (6S)-3-[4-[2-(2,5-Difluorophenyl)ethynyl]-2,6-difluoro-phenyl]-1,6-dimethyl-6-(1-methylpyrazol-4-yl)hexahydropyrimidine-2,4-dione]
Emax: 140%
EC50: 79 nM

CCN1C(=O)N(c2c(F)cc(C#Cc3ccccc3)cc2F)C(=O)C[C@@]1(C)c1cnn(C)c1 [Example 12, (6S)-3-[2,6-Difluoro-4-(2-phenylethynyl)phenyl]-1-ethyl-6-methyl-6-(1-methylpyrazol-4-yl)hexahydropyrimidine-2,4-dione]
Emax: 95%
EC50: 67 nM

CN1C(=O)N(c2c(F)cc(C#Cc3ccccc3F)cc2F)C(=O)C[C@@]1(C)c1cnn(C)c1 [Example 50, (6S)-3-[2,6-Difluoro-4-[2-(2-fluorophenyl)ethynyl]phenyl]-1,6-dimethyl-6-(1-methylpyrazol-4-yl)hexahydropyrimidine-2,4-dione]
Emax: 147%
EC50: 50 nM

CN1C(=O)N(c2c(F)cc(C#Cc3ccccc3)cc2F)C(=O)C[C@@]1(C)c1ncnn1C [Example 4, (6S)-3-[2,6-Difluoro-4-(2-phenylethynyl)phenyl]-1,6-dimethyl-6-(2-methyl-1,2,4-triazol-3-yl)hexahydropyrimidine-2,4-dione]
Emax: 95%
EC50: 136 nM

CN1C(=O)N(c2c(F)cc(C#Cc3ccccc3)cc2F)C(=O)C[C@@]1(C)c1cn(C)nn1 [Example 34, (6S)-3-[2,6-Difluoro-4-(2-phenylethynyl)phenyl]-1,6-dimethyl-6-(1-methyltriazol-4-yl)hexahydropyrimidine-2,4-dione]
Emax: 207%
EC50: 71 nM

CN1C(=O)N(c2c(F)cc(C#Cc3ccc(F)cc3F)cc2F)C(=O)C[C@@]1(C)c1cn[nH]c1 [Example 56, (6S)-3-[4-[2-(2,4-Difluorophenyl)ethynyl]-2,6-difluoro-phenyl]-1,6-dimethyl-6-(1H-pyrazol-4-yl)hexahydropyrimidine-2,4-dione]
Emax: 143%
EC50: 44 nM

CN1C(=O)N(c2c(F)cc(C#Cc3ccccc3)cc2F)C(=O)C[C@@]1(C)c1cc[nH]n1 [Example 10, (6S)-3-[2,6-Difluoro-4-(2-phenylethynyl)phenyl]-1,6-dimethyl-6-(1H-pyrazol-3-yl)hexahydropyrimidine-2,4-dione]
Emax: 134%
EC50: 84 nM

CN1C(=O)N(c2c(F)cc(C#Cc3ccccc3)cc2F)C(=O)C[C@@]1(C)c1ccn(CC(C)(C)O)n1 [Example 63, (6S)-3-[2,6-Difluoro-4-(2-phenylethynyl)phenyl]-6-[1-(2-hydroxy-2-methyl-propyl)pyrazol-3-yl]-1,6-dimethyl-hexahydropyrimidine-2,4-dione]
Emax: 99%
EC50: 71 nM

CN1C(=O)N(c2c(F)cc(C#Cc3ccccc3)cc2F)C(=O)C[C@@]1(C)c1cn[nH]c1 [Example 16, (6S)-3-[2,6-Difluoro-4-(2-phenylethynyl)phenyl]-1,6-dimethyl-6-(1H-pyrazol-4-yl)hexahydropyrimidine-2,4-dione]
Emax: 131%
EC50: 36 nM

CN1C(=O)N(c2c(F)cc(C#Cc3ccccc3)cc2F)C(=O)C[C@@]1(C)c1ccnn1C [Example 7, (6S)-3-[2,6-Difluoro-4-(2-phenylethynyl)phenyl]-1,6-dimethyl-6-(2-methylpyrazol-3-yl)hexahydropyrimidine-2,4-dione]
Emax: 100%
EC50: 147 nM

CN1C(=O)N(c2c(F)cc(C#Cc3ccccc3)cc2F)C(=O)C[C@@]1(C)c1ccno1 [Example 41, (6S)-3-[2,6-Difluoro-4-(2-phenylethynyl)phenyl]-6-isoxazol-5-yl-1,6-dimethyl-hexahydropyrimidine-2,4-dione]
Emax: 165%
EC50: 123 nM

CC(C)n1ccc([C@]2(C)CC(=O)N(c3c(F)cc(C#Cc4ccccc4)cc3F)C(=O)N2C)n1 [Example 29, (6S)-3-[2,6-Difluoro-4-(2-phenylethynyl)phenyl]-6-(1-isopropylpyrazol-3-yl)-1,6-dimethyl-hexahydropyrimidine-2,4-dione]
Emax: 146%
EC50: 126 nM

CN1C(=O)N(c2c(F)cc(C#Cc3ccccc3)cc2F)C(=O)C[C@@]1(C)c1cnn(C)c1 [Example 6, (6S)-3-[2,6-Difluoro-4-(2-phenylethynyl)phenyl]-1,6-dimethyl-6-(1-methylpyrazol-4-yl)hexahydropyrimidine-2,4-dione]
Emax: 98%
EC50: 36 nM

CN1C(=O)N(c2c(F)cc(C#Cc3ccccc3)cc2F)C(=O)C[C@@]1(C)c1ccn(CCO)n1 [Example 46, (S)-3-(2,6-Difluoro-4-(phenylethynyl)phenyl)-6-(1-(2-hydroxyethyl)-1H-pyrazol-3-yl)-1,6-dimethyldihydropyrimidine-2,4(1H,3H)-dione]
Emax: 156%
EC50: 97 nM
